Laboratory results taken from the supplement of paper PMC4862054.

Columns and labels:
Details in all cases: incubation time: 72 h
[1] = test system: BT-474; assay: normalised response (% of control), CellTox Green; higher = less cell death (100 = DMSO, 0 = benzethonium chloride kill control)
In short: (§1)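 For each plate, 0.1 % DMSO was set to 100 and a positive kill control to 0. Breast cancer cell lines (20 µl suspension) were seeded into 384-well plates already holding compound at 5 concentrations in 10-fold steps over a 10,000-fold range chosen per compound, and incubated for 72 h. CellTox Green fluorescence at 485/520 nm was read before CellTiter-Glo luminescence, which followed 10 min at room temperature. Each value is the normalised signal at one concentration.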

[2] = test system: BT-549; assay: as above
In short: as §1

[3] = test system: CAL-120; assay: as above
In short: as §1

[4] = test system: CAL-148; assay: as above
In short: as §1

[5] = test system: CAL-51; assay: as above
In short: as §1

[6] = test system: CAL-85-1; assay: as above
In short: as §1

[7] = test system: DU-4475; assay: as above
In short: as §1

[8] = test system: HCC1143; assay: as above
In short: as §1

[9] = test system: HCC1599; assay: as above
In short: as §1

[10] = test system: HCC1937; assay: as above
In short: as §1

[11] = test system: HDQ-P1; assay: as above
In short: as §1

[12] = test system: Hs578T; assay: as above
In short: as §1

[13] = test system: MCF-10A; assay: as above
In short: as §1

[14] = test system: MDA-MB-436; assay: as above
In short: as §1

[15] = test system: MDA-MB-453; assay: as above
In short: as §1

[16] = test system: MFM-223; assay: as above
In short: as §1

[17] = test system: MDA-MB-436; assay: normalised response (% of control), CellTiter-Glo; higher = more viable cells (100 = DMSO, 0 = benzethonium chloride kill control)
In short: as §1

[18] = test system: MDA-MB-468; assay: as above
In short: as §1

[19] = test system: MFM-223; assay: as above
In short: as §1

[20] = test system: SK-BR-3; assay: as above
In short: as §1

[21] = test system: MDA-MB-231; assay: normalised response (% of control), CellTox Green; higher = less cell death (100 = DMSO, 0 = benzethonium chloride kill control)
In short: as §1

[22] = test system: MDA-MB-468; assay: as above
In short: as §1

Compound	normalised response [1]	normalised response [2]	normalised response [3]	normalised response [4]	normalised response [5]	normalised response [6]	normalised response [7]	normalised response [8]	normalised response [9]	normalised response [10]	normalised response [11]	normalised response [12]	normalised response [13]	normalised response [14]	normalised response [15]	normalised response [16]	normalised response [17]	normalised response [18]	normalised response [19]	normalised response [20]	normalised response [21]	normalised response [22]
CCCCCOC(=O)Nc1nc(=O)n([C@@H]2O[C@H](C)[C@@H](O)[C@H]2O)cc1F [Capecitabine] (1000 nM)	99.1%	117%	102%	76.8%	113%	109%	99.2%	109%	96.3%	71.6%	110%	71.7%	64.8%	100%	103%	99.4%	98.7%	101%	102%	105%	–	–
CC(C)C[C@H](NC(=O)[C@H](CCc1ccccc1)NC(=O)CN1CCOCC1)C(=O)N[C@@H](Cc1ccccc1)C(=O)N[C@@H](CC(C)C)C(=O)[C@@]1(C)CO1 [Carfilzomib] (100 nM)	61.4%	50.8%	11.9%	14.6%	6.93%	-43%	86.1%	82.7%	97.3%	32.5%	-12.1%	46.7%	69.7%	18.8%	90.1%	32.8%	1.46%	0.79%	4.43%	3.27%	-17.7%	-95.8%
Nc1nc(Cl)nc2c1ncn2[C@@H]1O[C@H](CO)[C@@H](O)[C@@H]1F [Clofarabine] (1000 nM)	100%	70.7%	103%	67.1%	12.1%	88.3%	103%	112%	81.2%	109%	101%	95.3%	110%	105%	113%	99%	22.9%	43.7%	103%	42.7%	111%	145%
Nc1nc(Cl)nc2c1ncn2[C@@H]1O[C@H](CO)[C@@H](O)[C@@H]1F [Clofarabine] (10000 nM)	105%	87.3%	105%	65.1%	40.6%	60.5%	89.1%	106%	93.9%	75.6%	112%	142%	110%	65.6%	95.2%	102%	–	–	–	–	90.7%	73.1%
CCN(CC)CCOc1ccc(C(=C(Cl)c2ccccc2)c2ccccc2)cc1 [Clomifene] (1000 nM)	97.6%	114%	99.7%	104%	110%	99.8%	99.3%	82.3%	100%	82.8%	90.2%	102%	80.3%	83.7%	104%	–	104%	103%	100%	101%	96%	68.9%
C[C@@H]1C[C@H]2[C@@H]3CCC4=CC(=O)C=C[C@]4(C)[C@@]3(F)[C@@H](O)C[C@]2(C)[C@@]1(O)C(=O)CO [Dexamethasone] (1000 nM)	99.3%	111%	98.4%	–	110%	98.8%	96%	107%	87%	106%	56.1%	77.8%	78.1%	81.5%	94.8%	54.1%	104%	102%	93.5%	83.5%	141%	129%
C[C@@H]1C[C@H]2[C@@H]3CCC4=CC(=O)C=C[C@]4(C)[C@@]3(F)[C@@H](O)C[C@]2(C)[C@@]1(O)C(=O)CO [Dexamethasone] (10000 nM)	94%	100%	102%	100%	103%	130%	97.4%	51.4%	94.4%	61.1%	99.2%	87.4%	81.8%	97.4%	100%	101%	–	–	–	–	139%	135%
COc1cc2c(Oc3ccc(NC(=O)C4(C(=O)Nc5ccc(F)cc5)CC4)cc3F)ccnc2cc1OCCCN1CCOCC1 [Foretinib] (1000 nM)	97.1%	88.3%	99.9%	33.1%	37.9%	76.8%	95.2%	46%	92%	99.8%	58.9%	75.7%	101%	81.9%	93.5%	84.4%	–	–	–	–	-15.4%	37.6%
